The series is described as follows: ionization of the phosphonate group (pK values). In kind it is physicochemical. The text has this:
[drawing 33] it is isosteric with phosphorylated histidine. Further, the electrostatics of the phosphonoltriazolylalanine mimic those of phosphorylated Histidine. In particular, the phosphonate group of N-methyl-triazolylphosphonic acid is fully ionized at physiological pH (pK1=2.3 and pKA2=5.3), analogous to pHis.

As to N-methyl-triazolylphosphonic acid, the “pK1 of the phosphonate group” value is listed as 2.3 and the “pKA2 of the phosphonate group” value was 5.3.

The values above are taken from US9765154B2, “Phosphohistidine analogs” (THE ROCKEFELLER UNIVERSITY, priority 2010, dated 2017).
